Assay results as given in ChEMBL document CHEMBL1147540, “Design, synthesis, and SAR of 2-dialkylamino-4-arylpyrimidines as potent and selective corticotropin-releasing factor(1) (CRF(1)) receptor antagonists” (Bioorg Med Chem Lett, 2004).

Experiments:
[1] = target: T1, Corticotropin-releasing factor receptor 1 (Homo sapiens, UniProt P34998); assay: biochemical; type: cell-based, CHO
T1 sequence (P34998 whole entry): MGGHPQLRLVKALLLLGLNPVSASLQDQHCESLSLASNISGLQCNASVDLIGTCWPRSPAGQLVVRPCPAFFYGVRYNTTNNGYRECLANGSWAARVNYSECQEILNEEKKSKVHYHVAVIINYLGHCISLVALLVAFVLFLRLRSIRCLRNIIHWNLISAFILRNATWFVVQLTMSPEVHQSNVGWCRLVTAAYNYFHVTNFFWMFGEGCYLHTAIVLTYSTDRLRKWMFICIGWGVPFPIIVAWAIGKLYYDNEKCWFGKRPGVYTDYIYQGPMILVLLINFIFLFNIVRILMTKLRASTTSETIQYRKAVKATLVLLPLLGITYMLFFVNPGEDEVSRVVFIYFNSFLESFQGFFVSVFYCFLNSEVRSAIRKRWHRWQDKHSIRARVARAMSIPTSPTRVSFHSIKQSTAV

[2] = target: T1, Corticotropin-releasing factor receptor 1; assay: Binding affinity towards human Corticotropin releasing factor receptor 1 by the displacement of [125I]CRF from CHO cells; IA means Inactive; type: cell-based
[3] = target: T1, Corticotropin-releasing factor receptor 1; assay: Effective dose against human Corticotropin releasing factor receptor 1 stimulated ACTH release from primary rat anterior pituitary cell cultures; type: functional, cell-based, Pituitary gland cell
[4] = target: T1, Corticotropin-releasing factor receptor 1; assay: Effective dose against CRF stimulated cAMP production in CHO cells expressing human Corticotropin releasing factor receptor 1; type: functional, cell-based
[5] = target: T2, Corticotropin-releasing factor receptor 2 (Homo sapiens, UniProt Q13324); assay: Binding affinity towards human Corticotropin releasing factor receptor 2 by the displacement of [125I]CRF from CHO cells; IA means Inactive; type: cell-based
T2 sequence (Q13324 whole entry): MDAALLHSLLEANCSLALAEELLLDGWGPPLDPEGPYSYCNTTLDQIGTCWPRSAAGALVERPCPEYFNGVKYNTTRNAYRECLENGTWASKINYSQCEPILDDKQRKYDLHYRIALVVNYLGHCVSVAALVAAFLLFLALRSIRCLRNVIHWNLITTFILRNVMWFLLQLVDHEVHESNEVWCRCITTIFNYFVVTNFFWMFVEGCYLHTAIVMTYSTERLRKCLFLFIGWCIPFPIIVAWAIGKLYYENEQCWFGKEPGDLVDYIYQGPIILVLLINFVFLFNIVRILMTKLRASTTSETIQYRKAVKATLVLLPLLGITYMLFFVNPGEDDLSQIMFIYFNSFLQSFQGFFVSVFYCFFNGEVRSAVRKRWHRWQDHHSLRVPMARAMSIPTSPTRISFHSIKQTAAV

| SMILES | Ki [1] [µM] | also measured |
| --- | --- | --- |
| CCCN(c1nccc(-c2c(OC)cc(OC)cc2OC)n1)c1cccc2ccccc12 | – | Ki [2]: Not Active |
| CCCN(c1nccc(-c2c(OC)cc(OC)cc2OC)n1)[C@@H](c1ccccc1)C1CC1 | 0.24 | – |
| COc1cc(OC)c(-c2ccnc(N)n2)c(OC)c1 | – | Ki [2]: Not Active |
| CCCN(c1nccc(-c2ccc(OC)cc2OC)n1)C(C1CC1)C1CC1 | 0.46 | – |
| CCCN(c1nccc(-c2c(OC)cc(OC)cc2OC)n1)C1(c2ccoc2)CC1 | 0.7 | – |
| CCCN(c1ncc(C(=O)OC)c(-c2ccc(OC)cc2OC)n1)C(C1CC1)C1CC1 | – | Ki [2]: Not Active |
| CCCN(c1ncc(CC)c(-c2ccc(OC)cc2OC)n1)C(C1CC1)C1CC1 | 0.86 | – |
| CCCN(c1nc(C)c(C)c(-c2ccc(Br)cc2)n1)C(C1CC1)C1CC1 | – | Ki [2]: Not Active |
| C=CCN(c1nccc(-c2c(OC)cc(OC)cc2OC)n1)C(C1CC1)C1CC1 | 0.1 | – |
| CCCN(c1nccc(-c2c(OC)cc(OC)cc2OC)n1)C1(c2cccs2)CC1 | 0.25 | – |
| CCCN(c1ncc(C)c(-c2ccc(Br)cc2C)n1)C(C1CC1)C1CC1 | 0.063 | – |
| COc1cc(OC)c(-c2ccnc(NC(C3CC3)C3CC3)n2)c(OC)c1 | – | Ki [2]: Not Active |

The remaining molecules from weak to strong by Ki [1], led by results:

| Ki [1] [µM] | SMILES | also measured |
| --- | --- | --- |
| 0.063 | CCCN(c1nccc(-c2c(F)cc(OC)cc2OC)n1)C(C1CC1)C1CC1 | – |
| 0.049 | CCCN(c1ncc(C)c(-c2ccc(Br)cc2)n1)C(C1CC1)C1CC1 | – |
| 0.019 | CCCN(c1ncc(C)c(-c2ccc(OC)cc2OC)n1)C(C1CC1)C1CC1 | – |
| 0.015 | CCCN(c1ncc(C)c(-c2c(OC)cc(OC)cc2OC)n1)C(C1CC1)C1CC1 | – |
| 0.015 | CCCN(c1nccc(-c2c(OC)cc(OC)cc2OC)n1)C(C1CC1)C1CC1 | EC50 [3]: 0.97 µM; EC50 [4]: 0.99 µM; Ki [5]: Not Active |
| 0.011 | CCCN(c1nccc(-c2c(Cl)cc(OC)cc2OC)n1)C(C1CC1)C1CC1 | EC50 [3]: 1.1 µM; EC50 [4]: 1.6 µM; Ki [5]: Not Active |
